Measured values as given in ChEMBL document CHEMBL3885861, “Open TG-GATES”.

Species: Rattus norvegicus
Experiment: Open TG-GATES - Regimen: Single
Assay type: toxicity, organism-based, Sprague-Dawley
Design: regimen Single, gender Male, age 6 weeks
Details: in vivo, po, 0 mg/kg, route gavage, dose level Control; for APTT / Bas / Eos / Fbg / Hb / Ht / Lym / MCH / MCHC / MCV / Mono / Neu / PT / RBC / Ret / WBC / Plat: tissue Blood; for KIDNEY_L / KIDNEY_R / KIDNEY_TOTAL: tissue Kidney; for LIVER: tissue Liver; for ALP / ALT / AST / BUN / CRE / Ca / DBIL / GLC / IP / K / LDH / Na / PL / RALB / TBIL / TC / TG / TP / gamma-GTP: tissue Plasma

CSc1ccc2c(c1)N(CCC1CCCCN1C)c1ccccc1S2 (configuration not stated) [THIORIDAZINE]
TERMINAL_BW (3 h): 216.6 g
APTT (3 h): 16 s
Bas (3 h): 0%
Eos (3 h): 0.6%
Fbg (3 h): 206.6 mg/dL
Hb (3 h): 12.9 g/dL
Ht (3 h): 38.9%
Lym (3 h): 82.2%
MCH (3 h): 21.8 pg
MCHC (3 h): 33.2%
MCV (3 h): 65.7 fL
Mono (3 h): 7.4%
Neu (3 h): 10%
PT (3 h): 12.1 s
RBC (3 h): 592 x10_4/ul
Ret (3 h): 8.6%
WBC (3 h): 109.6 x10_2/uL
KIDNEY_L (3 h): 1 g
KIDNEY_R (3 h): 1 g
KIDNEY_TOTAL (3 h): 2 g
LIVER (3 h): 10.6 g
ALP (3 h): 789.2 IU/L
ALT (3 h): 37.2 IU/L
AST (3 h): 71 IU/L
BUN (3 h): 12.4 mg/dL
CRE (3 h): 0.5 mg/dL
Ca (3 h): 11.4 mg/dL
DBIL (3 h): 0.006 mg/dL
GLC (3 h): 197.6 mg/dL
IP (3 h): 10.1 mg/dL
K (3 h): 5 meq/L
LDH (3 h): 94.4 IU/L
Na (3 h): 137.4 meq/L
PL (3 h): 136.2 mg/dL
RALB (3 h): 3.8 g/dL
TBIL (3 h): 0.3 mg/dL
TC (3 h): 72.2 mg/dL
TG (3 h): 93.4 mg/dL
TP (3 h): 5.5 g/dL
gamma-GTP (3 h): 0.8 IU/L
TERMINAL_BW (6 h): 212.3 g
APTT (6 h): 16.3 s
Bas (6 h): 0%
Eos (6 h): 1%
Fbg (6 h): 216.8 mg/dL
Hb (6 h): 13.7 g/dL
Ht (6 h): 40.9%
Lym (6 h): 74%
MCH (6 h): 21.5 pg
MCHC (6 h): 33.3%
MCV (6 h): 64.4 fL
Mono (6 h): 8.2%
Neu (6 h): 17.2%
PT (6 h): 12.1 s
Plat (6 h): 98.4 x10_4/uL
RBC (6 h): 635.6 x10_4/ul
Ret (6 h): 7.7%
WBC (6 h): 117.4 x10_2/uL
KIDNEY_L (6 h): 0.9 g
KIDNEY_R (6 h): 1 g
KIDNEY_TOTAL (6 h): 1.9 g
LIVER (6 h): 9.5 g
ALP (6 h): 834 IU/L
ALT (6 h): 28 IU/L
AST (6 h): 60.4 IU/L
BUN (6 h): 12.4 mg/dL
CRE (6 h): 0.5 mg/dL
Ca (6 h): 10.9 mg/dL
DBIL (6 h): 0.016 mg/dL
GLC (6 h): 189 mg/dL
IP (6 h): 10.1 mg/dL
K (6 h): 5 meq/L
LDH (6 h): 100.4 IU/L
Na (6 h): 137.4 meq/L
PL (6 h): 147 mg/dL
RALB (6 h): 3.8 g/dL
TBIL (6 h): 0.4 mg/dL
TC (6 h): 80.2 mg/dL
TG (6 h): 84.4 mg/dL
TP (6 h): 5.5 g/dL
gamma-GTP (6 h): 2 IU/L
TERMINAL_BW (9 h): 210.2 g
APTT (9 h): 16.6 s
Bas (9 h): 0%
Eos (9 h): 1.2%
Fbg (9 h): 221.4 mg/dL
Hb (9 h): 13.4 g/dL
Ht (9 h): 40.6%
Lym (9 h): 73.2%
MCH (9 h): 21.6 pg
MCHC (9 h): 33.1%
MCV (9 h): 65.4 fL
Mono (9 h): 8.4%
Neu (9 h): 17.2%
PT (9 h): 12.2 s
Plat (9 h): 111.7 x10_4/uL
RBC (9 h): 620.6 x10_4/ul
Ret (9 h): 7.6%
WBC (9 h): 117.1 x10_2/uL
KIDNEY_L (9 h): 0.9 g
KIDNEY_R (9 h): 1 g
KIDNEY_TOTAL (9 h): 1.9 g
LIVER (9 h): 8.7 g
ALP (9 h): 724 IU/L
ALT (9 h): 30.6 IU/L
AST (9 h): 67.4 IU/L
BUN (9 h): 12.2 mg/dL
CRE (9 h): 0.5 mg/dL
Ca (9 h): 11.1 mg/dL
DBIL (9 h): 0.034 mg/dL
GLC (9 h): 197.6 mg/dL
IP (9 h): 10.7 mg/dL
K (9 h): 4.9 meq/L
LDH (9 h): 63 IU/L
Na (9 h): 139.6 meq/L
PL (9 h): 147.4 mg/dL
RALB (9 h): 4 g/dL
TBIL (9 h): 0.3 mg/dL
TC (9 h): 87.6 mg/dL
TG (9 h): 35.8 mg/dL
TP (9 h): 5.6 g/dL
gamma-GTP (9 h): 1.2 IU/L
TERMINAL_BW (24 h): 232.2 g
APTT (24 h): 15.8 s
Bas (24 h): 0%
Eos (24 h): 0.8%
Fbg (24 h): 225 mg/dL
Hb (24 h): 13.2 g/dL
Ht (24 h): 38.9%
Lym (24 h): 73%
MCH (24 h): 22 pg
MCHC (24 h): 33.9%
MCV (24 h): 64.9 fL
Mono (24 h): 9.4%
Neu (24 h): 16.8%
PT (24 h): 12.2 s
Plat (24 h): 107.1 x10_4/uL
RBC (24 h): 600.2 x10_4/ul
Ret (24 h): 8.3%
WBC (24 h): 127.4 x10_2/uL
KIDNEY_L (24 h): 1 g
KIDNEY_R (24 h): 1 g
KIDNEY_TOTAL (24 h): 2 g
LIVER (24 h): 11.4 g
ALP (24 h): 895 IU/L
ALT (24 h): 36 IU/L
AST (24 h): 65.2 IU/L
BUN (24 h): 18.4 mg/dL
CRE (24 h): 0.5 mg/dL
Ca (24 h): 11 mg/dL
DBIL (24 h): 0.016 mg/dL
GLC (24 h): 193.4 mg/dL
IP (24 h): 8.1 mg/dL
K (24 h): 5.1 meq/L
LDH (24 h): 73 IU/L
Na (24 h): 138.4 meq/L
PL (24 h): 150.8 mg/dL
RALB (24 h): 3.9 g/dL
TBIL (24 h): 0.3 mg/dL
TC (24 h): 81.6 mg/dL
TG (24 h): 87.8 mg/dL
TP (24 h): 5.7 g/dL
